{
  "source": "patent US20260335294A1",
  "about": "“TREATING CONGENITAL DISORDERS OF GLYCOSYLATION” (Mayo Foundation for Medical Education and Research, priority 2022, published 2026)",
  "key": {"pmm2 mutant zebrafish [1]": {"system": "pmm2 mutant zebrafish", "experiment": "Zebrabox motility assay", "format": "in vivo", "protocol": "Zebrabox Motility Assay Progeny of a pmm2^sa1050/+ (pmm2^m/+) mating were collected and raised in the light following standard protocols. […] Embryos were also fed a small number of rotifers daily once behavioral readings were completed. Locomotor activity (swim paths, speeds) was monitored for ten-minute intervals from 6-10 dpf using the Zebrabox System (ViewPoint Inc., Toronto, Canada). Data was analyzed and graphed using GraphPad Prism.\nThen, both wt and pmm2 mutant zebrafish were treated with 20 µM daily epalrestat, which increased the distance swam and the number of swim events initiated in the pmm2 mutant zebrafish (FIG. 5 C,D). The improvement was most significant at 6 dpf and 7 dpf (FIG. 5 C,D)."}, "pmm2 mutant zebrafish [2]": {"system": "pmm2 mutant zebrafish", "experiment": "Metabolomic profiling of zebrafish treated with epalrestat", "format": "in vivo", "details": "5 dpf embryos, single dose 10 μM or 40 μM, 24 hours", "protocol": "Animals were maintained according to standard protocols. The zebrafish strains were obtained from the Zebrafish International Resource Center (ZIRC, Eugene, OR). Pmm2sa10150 mutant zebrafish were established as described elsewhere (Klaver et al., JCI Insight, 6(24):e153474 (2021)).\n10 embryos per sample were homogenized by sonication in extraction buffer (80% MeOH, IS). The metabolites were then precipitated at −80 °C overnight, after which the samples were centrifuged at 15,000 rpm, 20 minutes, 4 °C. Next, the supernatant was transferred to a fresh Eppendorf tube. The samples were centrifuged again at 15,000 rpm, 20 minutes, 4 °C to remove any leftover impurities and transferred to a fresh MS vial. Finally, the samples were analyzed by LC/MS.\nFibroblasts were plated in 6-well plates for LC/MS and T75 flasks for GC/MS analysis as described above. After 24 hours, medium was removed and cells washed with PBS. Then, DMEM containing 5.5 mM glucose, 2 mM glutamine, and 10% dialyzed FBS was added. Epalrestat was freshly prepared and fibroblasts were supplemented with 10 μM epalrestat daily. After 48 hours media was changed, and 48 hours after that, metabolites were extracted and measured by both LC/MS and GC/MS. Zebrafish embryos were genotyped at 2 days post fertilization (dpf), and were treated by adding the epalrestat (solubilized in DMSO) directly into the embryo media at 5 dpf. […]"}, "PMM2-CDG patients": {"system": "PMM2-CDG patients", "experiment": "Anti-thrombin III (ATIII) in patients on epalrestat", "format": "in vivo, human", "details": "for AT III: C: 0.80-1.30", "from_the_text": "The primary objective of the study was to assess the efficacy and safety of epalrestat treatment in 3 PMM2-CDG pediatric subjects prior to a planned Phase III clinical trial (Oral epalrestat therapy in Pediatric Subjects with PMM2-CDG, NCT04925960). The secondary objective was to assess the ability of epalrestat to improve clinically relevant aspects of PMM2-CDG such as increased urine polyols (sorbitol, mannitol), abnormal glycosylation (carbohydrate deficient transferrin), abnormal coagulation (ATIII=antithrombin III), impaired liver function (ALT=Alanine Transaminase, AST=Aspartate Transaminase), neurologic function (Brief Ataxia Rating Scale=BARS), severity of phenotype (Nijmegen Pediatric CDG Rating Scale=NPCRS). The ability of epalrestat to inhibit polyol production was monitored by evaluating urine polyol levels (sorbitol, mannitol), which are elevated in PMM2-CDG. Next, carbohydrate deficient transferrin, which is abnormal in PMM2-CDG, was evaluated in order to assess improvement of glycosylation following epalrestat treatment. CDT mono-oligo/dioligo ratio and a-oligo/dioligo ratio are used to evaluate glycosylation abnormalities. Transferrin normally occurs with two glycan chains (di-oligo). In the case of glycosylation abnormalities, glycan chains are missing (A-oligo transferrin has no glycan chains, mono-oligo has one glycan chain, di-oligo has two glycan chains). The higher ratio of a-oligo/di-oligo and mono-oligo/di-oligo indicate glycosylation abnormalities are present. Therefore, improvement in a-oligo/di-oligo and mono-oligo/di-oligo ratios can be used to monitor improvement or worsening of glycosylation status. Changes in the liver enzymes AST, ALT, which are frequently elevated in PMM2-CDG, were monitored both as part of a safety study and as part of monitoring clinical improvement in coagulation. Neurologic improvement was assessed by modified BARS scores in 2 patients (3rd patient was not eligible for the test due to age at the start of the trial). NPCRS was assessed at every visit to assess changes in the severity of the patients' phenotype. Additionally, the frequency of adverse events, changes in vital signs, complete blood count, and changes in BMI were monitored.\nTwo patients were started on epalrestat on single patient investigational new drug (IND) (P5 IRB: 19-010017; IND #145262; P6 Protocol PMM2-CDG-001/A). Epalrestat was initiated on the parents' own initiative in the third patient (P7). Two patients were in their second year of epalrestat treatment, while the third, was in the 3rd year of treatment. Physical, neurological, and biochemical examinations were performed in 3 PMM2-CDG patients at baseline, and at every three months after the start of the epalrestat treatment. Patients underwent NPCRS phenotype severity assessment and biological sampling at every visit. Epalrestat (Ono Pharmaceuticals, Osaka, Japan) was taken orally 3 times per day (TID) before meals in a divided dose, with dosage escalation throughout the treatment. The pharmacological profile of epalrestat was as described elsewhere (Ligezka et al, Ann. Neurol., 90(6):887-900 (2021)). The starting dosage in P5 and P6 was 0.8 mg/kg/day, while P7 was started on 0.5 mg/kg/day due to their young age. P7 dosage was increased to 0.8 mg/day after a month, once safety was established. Blood and urine samples were collected routinely. […]"}, "PMM2-CDG": {"system": "PMM2-CDG", "details": "Ligezka et al 2021; cited from earlier work"}, "pmm2 mutant zebrafish [3]": {"system": "pmm2 mutant zebrafish", "experiment": "Viability of treated zebrafish", "format": "in vivo"}, "[4]": {"details": "20 μM daily (printed 20 M), pmm2 mutant"}},
  "data": [
    {"smiles": "CC(/C=C1\\SC(=S)N(CC(=O)O)C1=O)=C\\c1ccccc1", "note": "[epalrestat]", "values": [
      {"measurement": "swimming behavior", "setting": "pmm2 mutant zebrafish [1]; 10 μM daily, wt and pmm2 mutant", "result": "no improvement in swimming behavior"},
      {"measurement": "distance swam", "setting": "pmm2 mutant zebrafish [1]; [4]", "result": "increased"},
      {"measurement": "number of swim events initiated", "setting": "pmm2 mutant zebrafish [1]; [4]", "result": "significantly increased"},
      {"measurement": "swimming distance at 6 dpf and 7 dpf", "setting": "pmm2 mutant zebrafish [1]; 20 μM daily, pmm2 zebrafish, wt n=42-46, pmm2 n=22-51", "result": "significantly increased"},
      {"measurement": "GDP-mannose level", "setting": "pmm2 mutant zebrafish [2]", "result": "increased"},
      {"measurement": "polyol levels", "setting": "pmm2 mutant zebrafish [2]", "result": "reduced"},
      {"measurement": "AT III", "setting": "PMM2-CDG patients; P5, 12 months, 1.5 mg/kg day, baseline 0.88", "result": 0.99, "unit": "IU/mL"},
      {"measurement": "AT III", "setting": "PMM2-CDG patients; P5, 24 months, 2 mg/kg day, baseline 0.88", "result": 0.97, "unit": "IU/mL"},
      {"measurement": "coagulation parameters (ATIII)", "setting": "PMM2-CDG patients; P5-P7, words", "result": "improvement"},
      {"measurement": "AT III", "setting": "PMM2-CDG patients; P6, 18 months, 3 mg/kg day, baseline 0.25", "result": 0.39, "unit": "IU/mL"},
      {"measurement": "AT III", "setting": "PMM2-CDG patients; P7, 12 months, 1.5 mg/kg day, baseline 0.21", "result": 0.37, "unit": "IU/mL"},
      {"measurement": "glycosylation in vivo", "setting": "PMM2-CDG", "result": "improved glycosylation"},
      {"measurement": "viability, treated vs untreated", "setting": "pmm2 mutant zebrafish [3]", "result": "no significant difference"}
    ]}
  ]
}
